Measurements as given in US5210193A, “Piperazine derivatives” (American Cyanamid Company, priority 1990, dated 1993).
In brackets after ≈: the same amount, converted by molar mass.

Assays:
[1] = tested on: Pseudomonas aeruginosa VGH 84-4; test: in vitro antibacterial MIC, agar plate dilution; type: cell-based; details: Pseudomonas aeruginosa, VGH844, 18 h, 35° C., read-out: MIC
Method: (§1) The in vitro antimicrobial spectrum of the compounds of ths invention were determined by the agar plate dilution method with Mueller-Hinton agar and an inoculum of each test organism of approximately 10^4 colony forming units delivered by the Steers replicating device. The minimal inhibitory concentration (MIC) in mcg/ml is defined as the lowest concentration of test compound that inhibited visible growth after 18 hours incubation at 35° C. Results are given in Table I, with the test compounds identified by the number of their hereinafter described examples.

[2] = tested on: Morganella morganii VGH 84-11; test: in vitro antibacterial MIC, agar plate dilution; type: cell-based; details: VGH8411, 18 hours, 35° C., read-out: MIC
Method: as §1

[3] = tested on: Klebsiella pneumoniae MOR 84-4; test: in vitro antibacterial MIC, agar plate dilution; type: cell-based; details: Klebsiella pneumoniae, MOR844, 18 h, 35° C., read-out: MIC
Method: as §1

[4] = tested on: Staphylococcus aureus ATCC 25913; test: in vitro antibacterial MIC, agar plate dilution; type: cell-based; details: ATCC25913, 18 hours, 35° C.
Method: as §1

[5] = tested on: Escherichia coli CMC 84-11; test: in vitro antibacterial MIC, agar plate dilution; type: cell-based; details: Escherichia coli, CMC8411, 18 h, 35° C., read-out: MIC
Method: as §1

[6] = tested on: Enterobacter aerogenes VGH 84-36; test: in vitro antibacterial MIC, agar plate dilution; type: cell-based; details: Klebsiella aerogenes, VGH8436, 18 hours, 35° C., read-out: MIC
Method: as §1

[7] = tested on: Proteus rettgeri CMC 84-41; test: in vitro antibacterial MIC, agar plate dilution; type: cell-based; details: Providencia rettgeri, CMC8441, 18 h, 35° C., read-out: MIC
Method: as §1

[8] = tested on: Staphylococcus aureus Smith; test: in vitro antibacterial MIC, agar plate dilution; type: cell-based; details: Staphylococcus aureus, 18 h, 35° C., read-out: MIC
Method: as §1

[9] = tested on: Enterobacter cloacae VGH 84-37; test: in vitro antibacterial MIC, agar plate dilution; type: cell-based; details: Enterobacter cloacae, VGH8437, 18 h, 35° C., read-out: MIC
Method: as §1

[10] = tested on: Escherichia coli ATCC 25922; test: in vitro antibacterial MIC, agar plate dilution; type: cell-based; details: Escherichia coli, ATCC25922, 18 h, 35° C., read-out: MIC
Method: as §1

Klebsiella pneumoniae AD [11] = test: in vitro antibacterial MIC, agar plate dilution; type: cell-based; details: Klebsiella pneumoniae, 18 h, 35° C., read-out: MIC
Method: as §1

Klebsiella pneumoniae AD [12] = test: in vivo antibacterial activity, survival of infected mice (Table II); parameters: species or system Charles River CD-1 mice; details: subcutaneous
Method: Charles River CD-1 mice were infected with either Klebsiella pneumoniae AD or Staphylococcus aureus Smith. A single subcutaneous dose of the test compound was administered 1/2 hour after infection. […] The results appear in Tables II and III, wherein the representative test compounds are identified by the number of their hereinafter described examples.

[13] = tested on: Streptococcus faecalis ATTC 29212; test: in vitro antibacterial MIC, agar plate dilution; type: cell-based; details: Enterococcus faecalis, ATTC29212, 18 hours, 35° C., read-out: MIC
Method: as §1

Row | MIC [1] [µg/mL] | MIC [2] [µg/mL] | MIC [3] [µg/mL] | MIC [4] [µg/mL] | MIC [5] [µg/mL] | MIC [6] [µg/mL] | MIC [7] [µg/mL] | MIC [8] [µg/mL] | MIC [9] [µg/mL] | MIC [10] [µg/mL] | MIC (Klebsiella pneumoniae AD [11]) [µg/mL] | MIC [13] [µg/mL] | SMILES | Survival Ratio 7 Days After Infection (Klebsiella pneumoniae AD [12]; 0.25 mg/kg single dose) | Survival Ratio 7 Days After Infection (Klebsiella pneumoniae AD [12]; 1 mg/kg single dose) | Survival Ratio 7 Days After Infection (Klebsiella pneumoniae AD [12]; 4 mg/kg single dose) | Survival Ratio 7 Days After Infection (Klebsiella pneumoniae AD [12]; 16 mg/kg single dose) | Survival Ratio 7 Days After Infection (Klebsiella pneumoniae AD [12]; 64 mg/kg single dose) | Survival Ratio 7 Days After Infection (Klebsiella pneumoniae AD [12]; 0.5 mg/kg single dose) | Survival Ratio 7 Days After Infection (Klebsiella pneumoniae AD [12]; 2 mg/kg single dose) | Survival Ratio 7 Days After Infection (Klebsiella pneumoniae AD [12]; 8 mg/kg single dose)
1 | 2 (≈ 5.69 µM) | ≤ 0.12 | ≤ 0.12 | ≤ 0.12 | ≤ 0.12 | ≤ 0.12 | ≤ 0.12 | ≤ 0.12 | ≤ 0.12 | ≤ 0.12 | ≤ 0.12 | 2 (≈ 5.69 µM) | CCn1cc(C(=O)O)c(=O)c2cc(F)c(N3CCNC(CF)C3)cc21 (stereo not drawn) [Example 24] |  |  |  |  |  |  |  | 
2 | > 256 | 8 (≈ 17 µM) | 16 (≈ 34 µM) | 1 (≈ 2.13 µM) | 8 (≈ 17 µM) | 64 (≈ 136 µM) | 8 (≈ 17 µM) | 0.5 (≈ 1.06 µM) | 16 (≈ 34 µM) | 8 (≈ 17 µM) | 8 (≈ 17 µM) | 32 (≈ 68 µM) | CCn1cc(C(=O)O)c(=O)c2cc(F)c(N3CCNC(c4cc(Cl)sc4Cl)C3)cc21 (stereo not drawn) [Example 51] |  |  |  |  |  |  |  | 
3 | > 256 | > 256 | > 256 | > 256 | > 256 | > 256 | > 256 | > 256 | > 256 | > 256 | > 256 | > 256 | CCn1cc(C(=O)O)c(=O)c2cc(F)c(N3CCNC(c4sc5ccc(Cl)cc5c4C)C3)cc21 (stereo not drawn) [Example 20, 7-[3-(5-Chloro-3-methylbenzo[b]thien-2-yl)-1-piperazinyl]-1-ethyl-6-fluoro-1,4-dihydro-4-oxo-3-quinolinecarboxylic acid] |  |  |  |  |  |  |  | 
4 | 8 (≈ 18.4 µM) | 0.5 (≈ 1.15 µM) | 1 (≈ 2.3 µM) | ≤ 0.12 | 0.25 (≈ 0.574 µM) | 1 (≈ 2.3 µM) | 0.5 (≈ 1.15 µM) | ≤ 0.12 | 0.5 (≈ 1.15 µM) | 0.25 (≈ 0.574 µM) | 0.5 (≈ 1.15 µM) | 1 (≈ 2.3 µM) | CCn1cc(C(=O)O)c(=O)c2cc(F)c(N3CCNC(c4cc5ccccc5o4)C3)cc21 (stereo not drawn) [Example 46, 7-[3-(2-Benzofuranyl)-1-piperazinyl]-1-ethyl-6-fluoro-1,4-dihydro-4-oxo-3-quinolinecarboxylic acid] |  |  |  |  |  |  |  | 
5 | > 256 | 4 (≈ 7.63 µM) | 8 (≈ 15.3 µM) | 0.5 (≈ 0.953 µM) | 4 (≈ 7.63 µM) | 16 (≈ 30.5 µM) | 4 (≈ 7.63 µM) | 0.25 (≈ 0.477 µM) | 4 (≈ 7.63 µM) | 2 (≈ 3.81 µM) | 4 (≈ 7.63 µM) | 4 (≈ 7.63 µM) | CCn1cc(C(=O)O)c(=O)c2cc(F)c(N3CCNC(c4ccn(S(=O)(=O)c5ccccc5)c4)C3)cc21 (stereo not drawn) [Example 44, 1-Ethyl-6-fluoro-1,4-dihydro-4-oxo-7-[3-[1-(phenylsulfonyl)-1H-pyrrol-3-yl]-1-piperazinyl]-3-quinolinecarboxylic acid] |  |  |  |  |  |  |  | 
6 | 32 (≈ 84.8 µM) | 2 (≈ 5.3 µM) | 2 (≈ 5.3 µM) | 2 (≈ 5.3 µM) | 1 (≈ 2.65 µM) | 2 (≈ 5.3 µM) | 0.5 (≈ 1.32 µM) | 1 (≈ 2.65 µM) | 1 (≈ 2.65 µM) | 2 (≈ 5.3 µM) | 1 (≈ 2.65 µM) |  | CCn1cc(C(=O)O)c(=O)c2cc(F)c(N3CCN(C)C(COC)C3)cc21 (stereo not drawn) [Example 10, 1-Ethyl-6-fluoro-1,4-dihydro-7-[3-(methoxymethyl)-4-methyl-1-piperazinyl]-4-oxo-3-quinolinecarboxylic acid] |  |  |  |  |  |  |  | 

The next lines start with the compound.

Row | SMILES | MIC [1] [µg/mL] | MIC [2] [µg/mL] | MIC [3] [µg/mL] | MIC [4] [µg/mL] | MIC [5] [µg/mL] | MIC [6] [µg/mL] | MIC [7] [µg/mL] | MIC [8] [µg/mL] | MIC [9] [µg/mL] | MIC [10] [µg/mL] | MIC (Klebsiella pneumoniae AD [11]) [µg/mL] | MIC [13] [µg/mL] | Survival Ratio 7 Days After Infection (Klebsiella pneumoniae AD [12]; 0.25 mg/kg single dose) | Survival Ratio 7 Days After Infection (Klebsiella pneumoniae AD [12]; 1 mg/kg single dose) | Survival Ratio 7 Days After Infection (Klebsiella pneumoniae AD [12]; 4 mg/kg single dose) | Survival Ratio 7 Days After Infection (Klebsiella pneumoniae AD [12]; 16 mg/kg single dose) | Survival Ratio 7 Days After Infection (Klebsiella pneumoniae AD [12]; 64 mg/kg single dose) | Survival Ratio 7 Days After Infection (Klebsiella pneumoniae AD [12]; 0.5 mg/kg single dose) | Survival Ratio 7 Days After Infection (Klebsiella pneumoniae AD [12]; 2 mg/kg single dose) | Survival Ratio 7 Days After Infection (Klebsiella pneumoniae AD [12]; 8 mg/kg single dose)
7 | CCn1cc(C(=O)O)c(=O)c2cc(F)c(N3CCNC(CO)C3)cc21.Cl (stereo not drawn) [Example 5, 1-Ethyl-6-fluoro-1,4-dihydro-7[3-(hydroxymethyl)-1-piperazinyl]-4-oxo-3-quinolinecarboxylic acid, hydrochloride] | 8 | 0.5 | 2 | 32 | 1 | 16 | 1 | 8 | 1 | 2 | 0.5 |  | 0/5 | 0/5 | 0/5 | 0/5 | 5/5 |  |  | 
8 | CCn1cc(C(=O)O)c(=O)c2cc(F)c(N3CCNC(CN4CCN(C)CC4)C3)cc21 (stereo not drawn) [Example 4, 1-Ethyl-6-fluoro 1,4-dihydro-7-[3-[(4-methyl-1-piperazinyl)methyl]-1-piperazinyl]-4-oxo-3-quinolinecarboxylic acid] | 64 (≈ 148 µM) | 4 (≈ 9.27 µM) | 16 (≈ 37.1 µM) | 64 (≈ 148 µM) | 8 (≈ 18.5 µM) | 16 (≈ 37.1 µM) | 32 (≈ 74.2 µM) | 8 (≈ 18.5 µM) | 4 (≈ 9.27 µM) | 8 (≈ 18.5 µM) | 8 (≈ 18.5 µM) |  | 0/5 | 0/5 | 4/5 | 5/5 | 5/5 |  |  | 
9 | CCn1cc(C(=O)O)c(=O)c2cc(F)c(N3CCNC(c4sccc4C)C3)cc21 (stereo not drawn) [Example 16, 1-Ethyl-6-fluoro-1,4-dihydro-7-[3-(3-methyl-2-thienyl)-1-piperazinyl]-4-oxo-3-quinolinecarboxylic acid] | > 256 | 4 (≈ 9.63 µM) | 8 (≈ 19.3 µM) | 1 (≈ 2.41 µM) | 4 (≈ 9.63 µM) | 8 (≈ 19.3 µM) | 8 (≈ 19.3 µM) | 0.5 (≈ 1.2 µM) | 8 (≈ 19.3 µM) | 8 (≈ 19.3 µM) | 4 (≈ 9.63 µM) |  | 0/5 | 0/5 | 1/5 | 1/5 |  |  |  | 
10 | Clc1ccc2oc(C3CNCCN3)cc2c1 (stereo not drawn) [Example 17, 2-(5-Chloro-2-benzofuranyl)piperazine] |  |  |  |  |  |  |  |  |  |  |  |  | 0/5 | 0/5 | 1/5 | 5/5 |  | 0/5 | 0/5 | 5/5
11 | CN(C)CC1CNCCN1 (stereo not drawn) [Example 1, N,N-Dimethyl-2-piperazinemethanamine] |  |  |  |  |  |  |  |  |  |  |  |  | 0/5 | 0/5 | 1/5 | 5/5 |  |  |  | 
